Results on one compound are retold here after patent US10889611B2, “Sialyltransferase inhibitors and uses thereof” (Academia Sinica, priority 2015, dated 2021).

In general, inhibition refers to the percentage by which the read-out fell short of the control.

Structures are written as SMILES.

For one data set, the system named is PANC-1 cells. Description: In vitro transwell invasion analysis, PANC-1 cells. It counts as cell-based, human. As to conditions: PANC-1 cells grown in fructose-containing medium, FIG. 4. Here is the method: Migration assays were done using a transwell, in which a polycarbonate filter pre-coated with Matrigel (8-μm pores, Millicell; Millipore, Billerica, Mass.) was inserted therein. Cells were serum-starved for 24 h and then seeded (5×10^5 cells per upper chamber) and treated with or without the present compound(s) (concentrations as indicated), and the assays were run for 6 h. Cells that had migrated to the underside of the inserted filter were stained with hematoxylin solution. The cells in the upper side of the inserted membrane were rubbed with a cotton swab. The migrated cells on the underside were pictured in a 200× magnification field and quantified.
In this example, the ability of the FCW34 in suppressing the migration and/or invasion of pancreatic cancer cells was investigated using in vitro transwell analysis and in vivo mice model bearing pancreatic cancer.

Data set [1] concerns the target T1, α2,3(O)-sialyltransferase ST3GALI (Rattus norvegicus, UniProt Q6H8N0).
T1 construct: purchased Calbiochem
T1 sequence (Q6H8N0 1-340): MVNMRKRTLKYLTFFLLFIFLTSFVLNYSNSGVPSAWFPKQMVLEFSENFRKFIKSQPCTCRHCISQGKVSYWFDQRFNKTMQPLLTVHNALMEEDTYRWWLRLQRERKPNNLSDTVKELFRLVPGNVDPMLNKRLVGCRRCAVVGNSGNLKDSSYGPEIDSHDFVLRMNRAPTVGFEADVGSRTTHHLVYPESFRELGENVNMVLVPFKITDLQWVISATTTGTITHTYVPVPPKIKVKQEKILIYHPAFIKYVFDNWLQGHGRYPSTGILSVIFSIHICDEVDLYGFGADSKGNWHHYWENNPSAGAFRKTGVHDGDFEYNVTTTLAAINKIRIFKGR
Description: Sialyltransferase inhibition assay, ST3GALI (reverse-phase HPLC). It counts as biochemical. The settings on record: read-out: ST3GALI inhibition percentage. A digest of the protocol: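 Rat ST3Gal(I) (1.4 mU) was incubated with 2.5 mM T-antigen and 1 mM CMP-Neu5Ac in 200 mM MES, 100 mM NaCl, 0.5 mM EDTA and 0.01% Triton X-100 with varied inhibitor, 15 min at 37 °C, then heat-quenched. Sialylated product was quantified by reverse-phase HPLC, and kinetic values came from nonlinear regression of initial rates.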

The next data set relates to MDA-MB-231 breast cancer. The experiment in a line: Nude mice model of human MDA-MB-231 breast cancer. It counts as in vivo. As for the experimental part:
BALB/c mice (4-5 weeks old) were subcutaneously injected with 1×10^6 MDA-MB-231 cells to the mammary fat pad on day 0. Tumors were allowed to grow in the mice until the size of the tumor reached 100 mm^3, and then the animals were randomly assigned to 3 groups (n=6-8 per group): tumor (vehicle) control, 10 mg/kg the present compound (e.g., FCW34 or FCW66) treatment group. The present compound was intraperitoneally (i.p.) injected to test animals every three days. The growth and metastasis of the tumors were observed by IVIS imaging system, and the metastasized tumor tissues were collected on day 60, and measured for the volume (V) using calipers and calculated by the formula V=(L×W^2)/2, where L is the length and W is the width of tumor.
The effects of the sialyltransferase inhibitor in tumor growth and metastasis were investigated in a nude mice model of human MDA-MB-231 breast cancer established in accordance with procedures set forth in the “Materials and Methods” section. The MDA-MB-231/Luc cells (5×10^6 cells) were orthotopically injected into the mammary fat pad of nude mice. Then the mice were given FCW34 and vehicle, respectively, on day 20, and the tumor volume were evaluated by bioluminescence every 3 days using IVIS image analysis.

With `C[C@H](CCC(=O)OCCOCCOCCN=[N+]=[N-])C1CC[C@H]2[C@@H]3CC[C@@H]4C[C@H](OC(=O)[C@H](CC(=O)O)Nc5ccc([N+](=O)[O-])c6nonc56)CC[C@]4(C)[C@H]3CC[C@]12C` (stereo partly drawn) [Compound 3, (3S)-4-(((3R,5R,8R,9S,10S,13R,14S)-17-((R)-5-(2-(2-(2-azidoethoxy)ethoxy)ethoxy)-5-oxopentan-2-yl)-10,13-dimethylhexadecahydro-1H-cyclopenta[a]phenanthren-3-yl)oxy)-3-((7-nitrobenzo[c][1,2,5]oxadiazol-4-yl)amino)-4-oxobutanoic acid], in the data set on PANC-1 cells, the invasion ability result is “significantly inhibited”. For the same compound, in data set [1] (measured at 500 μM), the inhibition at 500 µM came out at 0%. The inhibition at 1000 µM in data set [1] (measured at 1 mM) came to 60%. In the data set with MDA-MB-231 breast cancer (10 mg/Kg, FIG. 2B), the “growth of the cancer cells (tumors harvested on day 60)” value is “suppresses the growth”. The “level of bioluminescence (tumor growth, IVIS)” value in the data set on MDA-MB-231 breast cancer (10 mg/Kg/mouse/3 days, FIG. 2A) was “remained at a relatively low level”. The “toxic effects (biochemistry tests of blood and body weight assessment)” value in the data set on MDA-MB-231 breast cancer (treated mice, data not shown) is “limited toxic effects”.
